# Key:
# Calpain [1] = experiment: Monkey study, oral leupeptin: muscle calpain activities; type: in vivo, monkeys
# Excerpt: However, the trend in activities, as was expected, when comparing control, left muscle to right, denervated, leupeptin-treated muscle, was an overall decrease in calpain activity after leupeptin treatment. The mean decrease in calpain activity in the right opponens pollicis muscles of leupeptin treated animals was 30%. The mean decrease in calpain activity in the right abductor pollicis muscles of leupeptin-treated animals was 24%.
# [2] = Absorption of leupeptin into plasma after intramuscular injection (FIG. 2); type: in vivo, rats; conditions: leupeptin 18 mg/kg intramuscular injection in hind-limbs
# Protocol: To determine that leupeptin was effectively being absorbed into plasma following intramuscular (“IM”) administration in hind-limbs of 18 mg/kg, blood was withdrawn at 60, 75, 90, 120, 180 minutes and 24 hours after the IM injection (FIG. 2).
# Calpain [3] = experiment: Monkey study, intramuscular leupeptin: muscle calpain activities; type: in vivo, Cebus apella; conditions: right, nerve-repaired opponens and abductor muscles, 12 and 24 weeks
# Excerpt: (§1) In order to test the hypothesis that in vivo inhibition of calpains by leupeptin can facilitate neuromuscular recovery by inhibiting denervation atrophy of the skeletal-muscle target after complete peripheral nerve transection and delayed nerve repair (7), a monkey study (Cebus apella) was undertaken. This median-nerve model was chosen to approximate human anatomic and regenerative aspects.
# [4] = system: opponens pollicis and abductor pollicis myofibers; experiment: Monkey study, oral leupeptin: myofiber diameter after median nerve repair; type: in vivo, monkeys; conditions: for percentage atrophy: loss of myofiber diameter vs left, unoperated control group: 3 months post nerve repair
# Protocol: Subsequent to the above studies another series of experiments were performed on the monkeys to assess another route of leupeptin administration in these animals (8). In this regard, oral delivery of leupeptin, after median nerve transection and epineural nerve repair, was studied for its potential benefits to neuromuscular recovery. […] When plasma leupeptin concentrations were 3 mg or greater, morphologic and functional motor recovery were facilitated after nerve repair.
# When expressed as a percentage atrophy, in comparison to the left, unoperated control group, the right control group lost 63 percent of its myofiber diameter; the 3-mg group lost 53% of its myofiber diameter; the 6-mg group 23%; the 12-mg group 11%; and the 18-mg group only 8%.
# [5] = Monkey study, intramuscular leupeptin: toxicology and echocardiograms; type: in vivo, Cebus apella
# Protocol: as §1
# Complete blood counts and clotting times after intramuscular leupeptin administration at 18 mg/kg, twice daily for 24 weeks, were not affected in treated animals, when compared to controls. In controls, mean values were as follows: WBC=4.83±1.04×10^3; RBC=5.34±0.34×10^6; hematocrit=37.97%±2.09; platelets=3.30±0.05×10^5; prothrombin time=9.68±0.36 sec; partial thromboplastin time=28.78±1.32 sec. In treated animals, mean values were: WBC=6.67±2.26×10^3; RBC=5.55±0.26×10^6; hematocrit=38.18%+1.69; platelets 4.33±0.18×10^5; prothrombin time=10.88±0.49 sec; partial thromboplastin time=33.06±0.76 sec.
# Echocardiograms: To assure that leupeptin was causing no pathological effects on heart muscle, the cardiac lateral wall and septum were measured in millimeters in all animals prior to leupeptin treatment and 25 weeks after delayed nerve repair. Prior to treatment, in animals designated as controls, the lateral wall was 2.88±0.33 mm and the septum was 2.84±0.2 mm. Twenty-five weeks later in control animals, the lateral wall was 3.0±0.5 mm and the septum was 2.9±0.2 mm. Prior to treatment, in animals designated to receive leupeptin, the lateral wall was 3.5±0.2 mm and the septum was 2.9±0.4 mm. Twenty-five weeks later, in leupeptin-treated animals, the lateral wall was 3.2±0.1 mm and the septum was 2.8±0.3 mm. Importantly, there were no significant statistical differences within either the control or treatment groups or between the control and treatment groups (data not shown).
# [6] = system: opponens and abductor myofibers; experiment: Monkey study, intramuscular leupeptin: muscle morphology after delayed median nerve repair; type: in vivo, Cebus apella
# Excerpt: as §1
# calpain [7] = conditions: rats, IP, muscle isolated after 2 hours
# Protocol: An initial series of toxicology experiments was performed in rats to assess the effect of CLA at various doses, on animal viability. […] A series of experiments to examine the ability of CLA vs. leupeptin to decrease activated calpain levels and inhibit muscle wasting was conducted. In the experiment shown in Table 4, rats were utilized to assess the effect of IP injection of either leupeptin or CLA into the hind limb muscle on their ability to inhibit calpain activity. To this end, four rats were injected IP with either leupeptin or CLA. After 2 hours, the muscle was isolated, homogenized, and assayed for remaining calpain activity by the standard assay.
# calpain [8] = experiment: Calpain activities of muscle samples from leupeptin-treated MDX mice; type: in vivo, mouse; conditions: for Calpain activities of muscle samples, Anterior tibialis / Calpain activities of muscle samples, Diaphragm / Calpain activities of muscle samples, Gastrocnemius / Calpain activities of muscle samples, Soleus: mdx mice, average of 3 determinations
# Protocol: It is well documented that as, observed in DMD and BMD, dystrophin is dysfunctional/absent in the murine MDX model of muscular dystrophy. […] A series of studies to test the ability of the calpain inhibitor, leupeptin, to delay and/or prevent features of calcium-induced damage to dystrophic myofibers was initiated. Control C57BL/10SNJ mice were treated with intramuscular injections of normal saline. The MDX mice were treated intramuscularly with either normal saline or 12 mg/kg leupeptin or 18 mg/kg leupeptin twice daily. All injections were delivered in the hind-limbs in various locations to avoid muscle damage due to repeated injections at the same location. The gastrocnemius, soleus, anterior tibialis, and diaphragm muscles were examined in all animals.
# To further examine whether the beneficial/protective action of leupeptin was associated with a change in calpain activity, the activity of the enzyme was assessed in the muscle various muscles taken from the control, and MDX […]±treatment with leupeptin.
# [9] = leupeptin-treated monkeys, twenty-five weeks after delayed nerve repair
# [10] = monkeys, intramuscular leupeptin 18 mg/kg twice daily for 24 weeks
# [11] = left, unoperated hand of leupeptin treated monkeys, 24 weeks
smiles,measurement,setting,value
CC(=O)N[C@@H](CC(C)C)C(=O)N[C@@H](CC(C)C)C(=O)N[C@H](C=O)CCCNC(=N)N [Leupeptin],mean decrease in calpain activity,Calpain [1]; right abductor pollicis muscles of oral leupeptin-treated monkeys,24%
same,mean decrease in calpain activity,Calpain [1]; right opponens pollicis muscles of oral leupeptin treated monkeys,30%
same,peak plasma level,[2],4.5 µg/mL
same,time of plasma peak,[2],1 h
same,concentration at 24 h,"[2]; rat, plasma, 24 hr, read-out: plasma level by 24 hr",0 ng/mL
same,mean increase of calpain activities in control animals compared to leupeptin treated animals,Calpain [3],50%
same,mean myofiber diameter vs left control group,"[4]; left abductor pollicis, 6 months, 6-mg, 12-mg, 18-mg groups, p<0.01 (FIG. 5)",small but significant increase
same,mean myofiber diameter vs right control group,"[4]; right abductor pollicis, 6 months after nerve repair, 6-mg, 12-mg, 18-mg groups, p<0.01 (FIG. 5)",significant increase
same,"percent atrophy: loss of myofiber diameter vs left, unoperated abductor pollicis","[4]; right abductor pollicis, 6 months after nerve repair, oral leupeptin 3-mg group",30%
same,"percent atrophy: loss of myofiber diameter vs left, unoperated abductor pollicis","[4]; right abductor pollicis, 6 months after nerve repair, oral leupeptin 6-mg group",5%
same,"increase in myofiber diameter (no atrophy) vs left, unoperated abductor pollicis","[4]; right abductor pollicis, 6 months after nerve repair, oral leupeptin 12-mg group",1.2%
same,"increase in myofiber diameter (no atrophy) vs left, unoperated abductor pollicis","[4]; right abductor pollicis, 6 months after nerve repair, oral leupeptin 18-mg group",1.3%
same,mean myofiber diameter vs right control group,"[4]; right opponens pollicis, 3 months after nerve repair, all leupeptin treatment groups, p<0.01 (FIG. 4)",significant increase
same,"percentage atrophy: loss of myofiber diameter vs left, unoperated control group","[4]; right opponens pollicis, oral leupeptin 3-mg group",53%
same,"percentage atrophy: loss of myofiber diameter vs left, unoperated control group","[4]; right opponens pollicis, oral leupeptin 6-mg group",23%
same,"percentage atrophy: loss of myofiber diameter vs left, unoperated control group","[4]; right opponens pollicis, oral leupeptin 12-mg group",11%
same,"percentage atrophy: loss of myofiber diameter vs left, unoperated control group","[4]; right opponens pollicis, oral leupeptin 18-mg group",8%
same,cardiac lateral wall (echocardiogram),[5]; [9],3.2±0.1 mm
same,cardiac septum (echocardiogram),[5]; [9],2.8±0.3 mm
same,RBC,[5]; [10],5.55±0.26×10^6
same,WBC,[5]; [10],6.67±2.26×10^3
same,"blood chemistry analyses, treated vs control",[5]; [10],no significant differences between treated and control animals
same,hematocrit,[5]; [10],38.18%
same,partial thromboplastin time,[5]; [10],33.06 ± 0.76 s
same,platelets,[5]; [10],4.33±0.18×10^5
same,prothrombin time,[5]; [10],10.88 ± 0.49 s
same,"mean myofiber diameter, abductor",[6]; [11],40.43±2.23 μm
same,"mean myofiber diameter, opponens",[6]; [11],43.25±4.26 μm
same,myofiber diameter vs control animals,"[6]; right, nerve-repaired hand, opponens and abductor, 12 and 24 weeks (FIG. 3)",statistically significant increase
same,% inhibition of muscle calpain activity,calpain [7]; 75 μmoles,20%
same,% inhibition/μmole,calpain [7],0.26%
same,Fold (effectiveness per μmole relative to leupeptin),calpain [7],1
same,decrease in calpain activity vs untreated MDX muscles,"calpain [8]; anterior tibialis, 12 mg/kg",50%
same,decrease in calpain activity vs untreated MDX muscles,"calpain [8]; anterior tibialis, 18 mg/kg",77%
same,decrease in calpain activity vs untreated MDX muscles,"calpain [8]; diaphragm, 12 mg/kg",51%
same,decrease in calpain activity vs untreated MDX muscles,"calpain [8]; diaphragm, 18 mg/kg",71%
same,decrease in calpain activity vs untreated MDX muscles,"calpain [8]; gastrocnemius, 12 mg/kg",84%
same,decrease in calpain activity vs untreated MDX muscles,"calpain [8]; gastrocnemius, 18 mg/kg",60%
same,"Calpain activities of muscle samples, Anterior tibialis",calpain [8]; 12 mg/kg leupeptin,155 ± 16 cpm/200-μg protein
same,"Calpain activities of muscle samples, Diaphragm",calpain [8]; 12 mg/kg leupeptin,26 ± 4 cpm/200-μg protein
same,"Calpain activities of muscle samples, Gastrocnemius",calpain [8]; 12 mg/kg leupeptin,27 ± 7 cpm/200-μg protein
same,"Calpain activities of muscle samples, Soleus",calpain [8]; 12 mg/kg leupeptin,187 ± 16 cpm/200-μg protein
same,"Calpain activities of muscle samples, Anterior tibialis",calpain [8]; 18 mg/kg leupeptin,71 ± 11 cpm/200-μg protein
same,"Calpain activities of muscle samples, Diaphragm",calpain [8]; 18 mg/kg leupeptin,17 ± 5 cpm/200-μg protein
same,"Calpain activities of muscle samples, Gastrocnemius",calpain [8]; 18 mg/kg leupeptin,67 ± 8 cpm/200-μg protein
same,"Calpain activities of muscle samples, Soleus",calpain [8]; 18 mg/kg leupeptin,102 ± 9 cpm/200-μg protein
same,decrease in calpain activity vs untreated MDX muscles,"calpain [8]; soleus, 12 mg/kg",44%
same,decrease in calpain activity vs untreated MDX muscles,"calpain [8]; soleus, 18 mg/kg",70%
